This note sets out measurements from patent US12553033B2, “Medium, methods, cells and secreted factors for stem cell culture and therapy” (SanBio, Inc., priority 2016, dated 2026).

In experiment [1] the test system is Human bone marrow derived mesenchymal stem cells. Description: TNFSF10 (TRAIL) mRNA induction (quantitative real-time PCR) in mesenchymal stem cells, type 1 priming. The format is cell-based. The settings on record: normalized to 18S rRNA. As to the method: Referring to FIG. 4A and FIG. 4B, Type 1 mesenchymal stem cell priming by TLR4 is further enhanced with leukotriene B4 (LTB4), serotonin (5-HT), melatonin (MEL). Human bone marrow derived mesenchymal stem cells were induced into type 1 mesenchymal stem cells using lipopolysaccharide (LPS) and 0.5 ng/ml of human recombinant erythropoietin. Total RNA was isolated, purified, and reverse transcribed to cDNA. Quantitative real-time PCR was carried out using SYBR Green Master Mix. Data were analyzed using the quantitative comparative CT method, normalizing target gene expression to the 18S rRNA housekeeping gene, and shown as fold increase over the untreated control. […] Error bars represent +/− the standard error of the mean (SEM). […] TLR4 (approx. 425,854-fold FIG. 4A; approx. 7,567-fold FIG. 4B), LTB4 (approx. 49-fold FIG. 4A; approx. 49-fold FIG. 4B), 5-HT (approx. 333-fold FIG. 4B), or MEL (approx. 489-fold FIG. 4B).
On the technique in general: Quantitative PCR measures a nucleic acid by following its amplification.

Experiment [2] has the same test system. Description: CXCL9 mRNA induction (quantitative real-time PCR) in mesenchymal stem cells, type 2 priming. The format is cell-based. The settings on record: normalized to 18S rRNA. Here is the method:
Referring to FIG. 3A and FIG. 3B, Type 2 mesenchymal stem cell priming by TLR3 is further enhanced with Acetylcholine (ACH), Glutamate (GLU), and Lipoxin A4 (LAX4). Human bone marrow derived mesenchymal stem cells were induced into type 2 mesenchymal cells using poly(I:C) and 0.5 ng/ml of human recombinant erythropoictin. Total RNA was isolated, purified, and reverse transcribed to cDNA. Quantitative real-time PCR was carried out using SYBR Green Master Mix. Data were analyzed using the quantitative comparative CT method, normalizing target gene expression to the 18S rRNA housekeeping gene, and shown as fold increase over the untreated control. […] Error bars represent +/− the standard error of the mean (SEM).

With `NCCc1c[nH]c2ccc(O)cc12` [5-HT, serotonin], the “TNFSF10 (TRAIL) gene expression, fold increase over the untreated control” value in experiment [1] (FIG. 4B experiment) is “approx. 333 fold”.

`CCCCC[C@H](O)/C=C/C=C\C=C\C=C\[C@@H](O)[C@@H](O)CCCC(=O)O` [LAX4, Lipoxin A4]: the “CXCL9 gene expression, fold increase over the untreated control” value (shortened to “CXCL9 gene expression, fold increase”) in experiment [2] (FIG. 3A experiment) is listed as “approx. −2 fold”; in experiment [2] (FIG. 3B experiment), “approx. 13 fold”.

Turning to poly(I:C) [TLR3], the “CXCL9 gene expression, fold increase” value in experiment [2] (FIG. 3A experiment) was “approx. 8.8 fold”; in experiment [2] (FIG. 3B experiment), “approx. 22 fold”.

Take `COc1ccc2[nH]cc(CCNC(C)=O)c2c1` [MEL, melatonin]: in experiment [1] (FIG. 4B experiment), the “TNFSF10 (TRAIL) gene expression, fold increase over the untreated control” value was “approx. 489 fold”.

As to `CCCCC/C=C\C[C@@H](O)/C=C/C=C/C=C\[C@@H](O)CCCC(=O)O` [LTB4, leukotriene B4], the “TNFSF10 (TRAIL) gene expression, fold increase over the untreated control” value in experiment [1] (FIG. 4A experiment) and in experiment [1] (FIG. 4B experiment) was “approx. 49 fold” each time.

For the molecule `CC(=O)OCC[N+](C)(C)C` [ACH, Acetylcholine], the “CXCL9 gene expression, fold increase” value is listed as “approx. 3.7 fold” in experiment [2] (FIG. 3A experiment) and “approx. 20 fold” in experiment [2] (FIG. 3B experiment).

For the molecule `N[C@@H](CCC(=O)O)C(=O)O` [GLU, Glutamate], the “CXCL9 gene expression, fold increase” value is “approx. 1.4 fold” in experiment [2] (FIG. 3A experiment) and “approx. 16 fold” in experiment [2] (FIG. 3B experiment).
